These results are taken from patent US12122750B2, “AT2R antagonists and uses thereof” (Eli Lilly and Company, priority 2022, dated 2024).

Series [1] deals with recombinant human angiotensin-II receptor subtype 2 (hAT2R) (Homo sapiens (Human), UniProt P50052). Description: Competitive radioligand binding assay (SPA), hAT2R HEK293 membranes. The settings on record: [125I]-Tyr4-Angiotensin-II, read-out: AT2R Ki. An outline of the steps: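 SPA competition binding on membranes from HEK293 cells stably transfected with hAT2R (0.25 μg/well, with 0.1 mg/well PVT-WGA beads) in 50 mM Tris-HCl pH 7.5, 150 mM NaCl, 0.1% fatty-acid-free BSA. Ten-point four-fold dilution curves ran from 50 μM top final concentration. Bound radioactivity was counted (CPM) after 10 h at room temperature.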
recombinant human angiotensin-II receptor subtype 2 (hAT2R), sequence (P50052 whole entry): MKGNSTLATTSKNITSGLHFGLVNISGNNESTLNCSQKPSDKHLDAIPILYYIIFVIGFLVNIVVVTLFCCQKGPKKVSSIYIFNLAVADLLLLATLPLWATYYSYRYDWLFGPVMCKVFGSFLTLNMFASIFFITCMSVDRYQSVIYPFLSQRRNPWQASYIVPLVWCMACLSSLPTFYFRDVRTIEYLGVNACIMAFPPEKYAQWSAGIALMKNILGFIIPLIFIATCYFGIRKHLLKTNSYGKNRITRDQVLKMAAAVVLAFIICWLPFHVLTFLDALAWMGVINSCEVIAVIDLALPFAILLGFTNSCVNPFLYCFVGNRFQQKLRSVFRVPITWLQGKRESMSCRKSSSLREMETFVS

Series [2] has as its target recombinant human angiotensin-II receptor subtype I (hAT1R) (Homo sapiens (Human), UniProt P30556). Briefly: Competitive radioligand binding assay (SPA), hAT1R/CHO membranes. The note with it: [125I]-Tyr4-Angiotensin-II, read-out: AT1R Ki. Here is the method: Membranes hATIR/CHO were Purchased from PerkinElmer, Inc.
Cellular membranes prepared from Chinese hamster ovary (CHO) cells which expressed recombinant human angiotensin-II receptor subtype I (hAT1R), were purchased from PerkinElmer (Catalog Number ES-072-M400UA).
(§1) Receptor Binding Protocol
(§2) The assays were performed with a scintillation proximity assay (SPA) method using polyvinyltoluene (PVT) wheat germ agglutinin-coupled SPA beads (Perkin Elmer Cat. #RPNQ0001). Assay buffer containing BSA (50 mM Tris-HCl, pH 7.5, 150 mM NaCl, 0.1% w/v fatty-acid free BSA) was used for preparing radioligand, membrane and SPA bead reagent dilution to working stock concentrations. Reference control and test compounds were diluted to obtain ten-point concentration response curves using a four-fold serial dilution protocol onto assay plates, dispensed acoustically from DMSO stock using automated ECHO instrument technology (Labcyte, Inc.). Concentration response curves were routinely generated with the highest final assay concentration for the reference angiotensin-II control at 50 nM, and the highest final assay concentration for the test compounds at 50 μM. […] The hAT2R membrane was combined with PVT-WGA SPA beads to obtain a final assay concentration of 0.25 μg/well hAT2R membrane+0.1 mg/well PVT-WGA SPA bead. And the hAT1R membrane PVT-WGA SPA bead final concentrations was 0.5 μg/well hAT1R membrane+0.1 mg/well PVT-WGA SPA bead. […] For all assays, radioligand addition was followed by the addition of membrane-SPA bead mixture, i.e., the hAT2R membrane-SPA bead mixture (30 μL), the rAT2R membrane-SPA bead mixture, or the AT1R membrane-SPA bead mixture (30 μL) into the assay plate. All dispensing steps were added using a Multiflo FX (Biotek, Inc.) bulk dispensing instrument. After reagent addition steps, assay plates were sealed, and plate contents mixed for one minute on a benchtop micro-plate shaker. Following a 10-hour incubation at room temperature to allow for bead settling and radioligand binding, bound radioactivity was quantitated using a Microbeta Trilux scintillation counter (Perkin Elmer) and expressed as counts per minute (CPM). The unlabeled angiotensin-II control was included on each plate as an experimental assay reference.
(§3) Compounds were tested in a 10-point concentration response curve (CRC) format, with each plate containing the positive control angiotensin-II positive reference compound, and experimental compounds. Maximum binding response (Max) was determined in 32 control wells per plate using assay buffer treatment only, and the minimum binding controls or nonspecific binding response (Min) was also determined in 32 wells per plate by the treatment with 50 nM angiotensin-II. All test sample concentration responses were normalized to the control response and calculated as a percent of the maximal response after correcting for nonspecific binding as shown below: % Specific inhibition=100%−[(CPM−Min)/(Max−Min)×100%]
(§4) Percent specific binding (y-axis) was plotted versus the log concentration of compound (x-axis).
Binding affinities for compounds of the present disclosure were determined according to the assay described herein.
Binding affinities for compounds of the present disclosure were determined according to the assay described above.

Series [3] deals with T1, AT2R (Rattus norvegicus (Rat), UniProt P35351). Description: Inhibition of C21-induced increase in dermal blood flow (laser Doppler imaging). It counts as in vivo, Sprague Dawley rats.
T1 sequence (P35351 whole entry): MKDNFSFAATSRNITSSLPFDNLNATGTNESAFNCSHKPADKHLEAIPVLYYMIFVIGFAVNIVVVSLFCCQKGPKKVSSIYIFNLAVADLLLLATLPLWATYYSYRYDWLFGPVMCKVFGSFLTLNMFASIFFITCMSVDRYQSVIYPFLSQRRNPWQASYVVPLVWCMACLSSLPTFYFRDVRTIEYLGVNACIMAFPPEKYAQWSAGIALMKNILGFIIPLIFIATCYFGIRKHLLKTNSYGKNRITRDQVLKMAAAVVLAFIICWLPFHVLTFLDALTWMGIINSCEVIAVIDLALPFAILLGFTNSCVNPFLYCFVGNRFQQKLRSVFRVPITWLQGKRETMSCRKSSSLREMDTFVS
The target in another series is rAT2R (Rattus norvegicus (Rat), UniProt P35351). Briefly: Rat binding affinity, competitive radioligand binding assay (SPA), rAT2R HEK293 membranes. The settings on record: rat AT2R. Here is the method: Membrane Preparation Protocol (hAT2R HEK293 and rAT2R HEK293)
rAT2R, sequence (P35351 whole entry): as above
as §1, §2, §3, §4

A short description of series [4]: Plasma concentration of test compound in the receptor occupancy study. It counts as in vivo, Sprague Dawley rats. The settings on record: rat. Here is the method:
Twenty male Sprague Dawley rats (140-150 gms, Envigo) were maintained under controlled laboratory conditions on a 12 hr light cycle with ad lib access to food and water. On the morning of the experiment, rats were orally dosed with vehicle (1% (w/v) hydroxyethylcellulose, 0.25% (w/v) polysorbate 80, 0.05% (v/v) antifoam 1510-US in purified water) or appropriate doses of test compound (5 mL/kg, n=4 rats/group) using the same vehicle. Following a pre-determined survival time, plasma and adrenals were collected and frozen at −80° C. until analyzed. Frozen 20 μm sections of an adrenal from each animal were collected onto gelatin-coated slides and stored at −80° C. Autoradiography to detect AT2R occupancy (RO) was conducted under cold conditions using methods modified from F. M. J. Heemskerk, et al, Brain Research 677 (1995) 29-38. Total binding was defined by 0.3 nM ^125I-CGP42112 (selective AT2R agonist, Perkin Elmer, Inc) with the addition of 10 μM unlabeled AngII used to define non-specific binding. Following exposure to a phosphoimager plate (BAS TR2025, GE Healthcare), the bound radioactivity is calculated with use of MCID software (Imaging Research, Inc) and calibrated ^125I standards (American Radiolabeled Chemicals, Inc). The specific ligand binding for each animal is calculated by subtracting the non-specific binding from the total bound.

In series [5] the target is T1, AT2R. Description: AT2R ex vivo autoradiography receptor occupancy in rat adrenal sections after oral dosing. The arrangement: species or system Sprague Dawley rats. The settings on record: for IC50 / IC80: plasma concentration plotted vs % receptor occupancy, rat; for receptor occupancy at 10 mg/kg: oral dose 10 mg/kg; for receptor occupancy at 30 mg/kg: oral dose 30 mg/kg; for receptor occupancy at 100 mg/kg: oral dose 100 mg/kg; for ex vivo IC50 (TER) / ex vivo IC80 (TER): rat receptor occupancy; for receptor occupancy at 3 mg/kg: oral dose 3 mg/kg. Here is the method:
The ability for a compound to engage its target may be measured by determining compound's receptor occupancy. An ex vivo autoradiography assay was conducted as described herein.
Twenty male Sprague Dawley rats (140-150 gms, Envigo) were maintained under controlled laboratory conditions on a 12 hr light cycle with ad lib access to food and water. […] Following a pre-determined survival time, plasma and adrenals were collected and frozen at −80° C. until analyzed. Frozen 20 μm sections of an adrenal from each animal were collected onto gelatin-coated slides and stored at −80° C. […] The specific ligand binding for each animal is calculated by subtracting the non-specific binding from the total bound.

Molecules are shown by their SMILES.

The term Ki denotes the dissociation constant of the complex between target and ligand, obtained from inhibition or displacement. The term inhibition denotes the change of the read-out against control, counted positive when it falls. Low readings indicate a response near the control, high ones a response far below the control. As usually defined, the IC50 is the concentration at which inhibition is half-maximal. A lower IC50 goes with higher potency. A word on the IC80: it is the concentration at which the effect reaches the 80% level. Higher therefore signals weaker potency.

recombinant human angiotensin-II receptor subtype I (hAT1R), sequence (P30556 whole entry): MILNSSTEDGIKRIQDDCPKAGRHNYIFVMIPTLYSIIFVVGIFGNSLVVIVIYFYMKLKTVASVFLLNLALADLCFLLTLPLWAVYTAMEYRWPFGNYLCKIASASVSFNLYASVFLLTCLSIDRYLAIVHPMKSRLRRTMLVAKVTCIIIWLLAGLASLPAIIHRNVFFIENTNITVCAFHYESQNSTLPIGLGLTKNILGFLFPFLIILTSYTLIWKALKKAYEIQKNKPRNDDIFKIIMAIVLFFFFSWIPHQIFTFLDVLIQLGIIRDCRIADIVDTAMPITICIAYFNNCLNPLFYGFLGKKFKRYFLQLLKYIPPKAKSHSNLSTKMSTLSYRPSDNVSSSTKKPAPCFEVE

As to `O=C(N1CCC(CC(=O)N(c2ccccc2)C2CCCC(F)(F)C2)(C(=O)O)CC1)N1CCc2ccccc21` (racemic) [Example 35, 4-[2-(N-(3,3-difluorocyclohexyl)anilino)-2-oxo-ethyl]-1-(indoline-1-carbonyl)piperidine-4-carboxylic acid], the Ki in series [1] turned out to be 2.79 nM; in series [2] it was 37300 nM.

As for `CN(C(=O)N1CCC(CC(=O)N(c2cccc(F)c2)C2CCCC(F)(F)C2)(C(=O)O)CC1)c1ccccc1` (racemic) [Example 53, 4-[2-(N-(3,3-difluorocyclohexyl)-3-fluoro-anilino)-2-oxo-ethyl]-1-[methyl(phenyl)carbamoyl]piperidine-4-carboxylic acid], the Ki in series [1] came to 0.342 nM; in series [2], 37300 nM.

Compound `COc1ccc2c(c1OCc1ccccc1)C[C@@H](C(=O)O)N(C(=O)C(c1ccccc1)c1ccccc1)C2` [EMA401, Olodanrigan, reference compound] gave an inhibition at 1 mg/kg against AT2R [3] (dose 1 mg/kg, C21-induced increase in dermal blood flow) of 7.8%. The compound also showed an inhibition at 3 mg/kg on AT2R [3] (dose 3 mg/kg, C21-induced increase in dermal blood flow) of 47.2%. In addition, testing at 10 mg/kg against AT2R [3] (dose 10 mg/kg, C21-induced increase in dermal blood flow) gave an inhibition of 67.6%. Further, on AT2R [3] (C21-induced increase in dermal blood flow), the inhibition at 30 mg/kg is 86.9%. Moreover, the inhibition at 30 mg/kg against AT2R [3] (second, unlabelled column under % Inhibition) is 97.3%. Further, the Ki at rAT2R was determined as 4.47 nM. The “[plasma, free, nM]” value in series [4] (oral dose 1 mg/kg) is on record as 6.39 nM. For the same compound, the “[plasma, free, nM]” value in series [4] (oral dose 3 mg/kg) came out at 18.9 nM. The “[plasma, free, nM]” value in series [4] (oral dose 30 mg/kg) came out at 6.28 nM. Also, in series [4] (oral dose 100 mg/kg), the “[plasma, free, nM]” value is 15.7 nM. At AT2R [5], the IC50 was 0.483 nM, it took 3.03 nM to reach the 80% level (IC80), the “ex vivo IC50 (TER)” value came out at 0.108 TER and the “ex vivo IC80 (TER)” value turned out to be 0.678 TER. Besides, at AT2R [5] (rat adrenal, read-out: % RO), the receptor occupancy at 10 mg/kg came out at 17.3%, the receptor occupancy at 30 mg/kg is 84.7% and the receptor occupancy at 100 mg/kg came to 93.7%.

As to `CN(C(=O)N1CCC(CC(=O)N(c2ccccc2)c2ccc(F)cc2)(C(=O)O)CC1)c1ccc(F)cc1` [compound 30, 4-[2-(N-(4-fluorophenyl)anilino)-2-oxo-ethyl]-1-[(4-fluorophenyl)-methyl-carbamoyl]piperidine-4-carboxylic acid], at rAT2R, affinity was put at a Ki of 0.6 nM. Further, at AT2R [5] (rat adrenal, oral dose 0.01 mg/kg, read-out: % RO), the receptor occupancy at 0.01 mg/kg turned out to be 30.4%. Besides, the receptor occupancy at 0.03 mg/kg on AT2R [5] (rat adrenal, oral dose 0.03 mg/kg, read-out: % RO) amounted to 3.46%. On AT2R [5] (rat adrenal, oral dose 0.3 mg/kg, read-out: % RO), the receptor occupancy at 0.3 mg/kg stood at 45.6%. In addition, the receptor occupancy at 3 mg/kg at AT2R [5] (rat adrenal, read-out: % RO) was 88.7%.

Turning to `CN(C(=O)N1CCC(CC(=O)N(c2ccccc2)[C@H]2CCCC(F)(F)C2)(C(=O)O)CC1)c1ccc(F)cc1` (single isomer, unassigned) [44B (isomer 2)], the Ki in series [2] is 37300 nM.

`CC(C)(C(=O)N1CCC(CC(=O)N(c2ccccc2)C2CCCC(F)(F)C2)(C(=O)O)CC1)c1ccccc1F` (racemic) [Example 67, 4-[2-(N-(3,3-difluorocyclohexyl)anilino)-2-oxo-ethyl]-1-[2-(2-fluorophenyl)-2-methyl-propanoyl]piperidine-4-carboxylic acid]: the Ki in series [1] amounted to 2.31 nM; in series [2] it was 37300 nM.

`CCCCCN(C)C(=O)N1CCC(CC(=O)N(c2ccccc2)c2ccccc2)(C(=O)O)CC1` [Example 1, 1-[methyl(pentyl)carbamoyl]-4-[2-oxo-2-(N-phenylanilino)ethyl]piperidine-4-carboxylic acid] returned a Ki at rAT2R of 28.2 nM. In series [4] (oral dose 3 mg/kg), the “[plasma, free, nM]” value amounted to 0.729 nM. In series [4] (oral dose 10 mg/kg), the “[plasma, free, nM]” value turned out to be 2.25 nM. Moreover, the “[plasma, free, nM]” value in series [4] (oral dose 30 mg/kg) worked out at 6.42 nM. The “[plasma, free, nM]” value in series [4] (oral dose 100 mg/kg) was found to be 10.4 nM. Besides, on AT2R [5], the IC50 worked out at 5.64 nM, it took 22.6 nM to reach the 80% level (IC80), the “ex vivo IC50 (TER)” value amounted to 0.200 TER and the “ex vivo IC80 (TER)” value was determined as 0.800 TER. Also, at AT2R [5] (rat adrenal, read-out: % RO), the receptor occupancy at 3 mg/kg was found to be 23.4%, the receptor occupancy at 10 mg/kg worked out at 44.6%, the receptor occupancy at 30 mg/kg worked out at 41.6% and the receptor occupancy at 100 mg/kg is 54.6%.

As for `O=C(N1CCC(CC(=O)N(c2ccccc2)C2CCCC(F)(F)C2)(C(=O)O)CC1)N1CCc2ccccc21` (single isomer, unassigned) [Example 35B, 4-[2-(N-(3,3-difluorocyclohexyl)anilino)-2-oxo-ethyl]-1-(indoline-1-carbonyl)piperidine-4-carboxylic acid], the Ki in series [1] came to 1.03 nM; in series [2], 37300 nM.

With `N#Cc1ccc2c(c1)N(C(=O)N1CCC(CC(=O)N(c3ccccc3)C3CCCC(F)(F)C3)(C(=O)O)CC1)CC2` (racemic) [Example 47, 1-(6-cyanoindoline-1-carbonyl)-4-[2-(N-(3,3-difluorocyclohexyl)anilino)-2-oxo-ethyl]piperidine-4-carboxylic acid], the inhibitory constant (Ki) in series [1] came to 1.34 nM; in series [2], 37300 nM.

With `O=C(CC1(C(=O)O)CCN(C(=O)C2(c3ccccc3F)CC2)CC1)N(c1ccccc1)C1CCCC(F)(F)C1` (racemic) [Example 66, 4-[2-(N-(3,3-difluorocyclohexyl)anilino)-2-oxo-ethyl]-1-[1-(2-fluorophenyl)cyclopropanecarbonyl]piperidine-4-carboxylic acid], the results for the Ki in series [1] and in series [2] were 0.619 nM and 37300 nM, respectively.

`CN(C(=O)N1CCC(CC(=O)N(c2ccccc2)c2ccccc2)(C(=O)O)CC1)c1ccc(F)cc1` [Example 2, 1-[(4-fluorophenyl)-methyl-carbamoyl]-4-[2-oxo-2-(N-phenylanilino)ethyl]piperidine-4-carboxylic acid]: the “[plasma, free, nM]” value stood at 0.0697 nM in series [4] (oral dose 0.01 mg/kg), 0.0403 nM in series [4] (oral dose 0.03 mg/kg), 0.153 nM in series [4] (oral dose 0.3 mg/kg) and 0.772 nM in series [4] (oral dose 3 mg/kg). The Ki in series [2] is 37300 nM.
